{"source": "patent US11634396B2", "about": "(priority 2021, dated 2023)", "key": {"human dOR": {"biological_target": "human dOR (Homo sapiens (Human), UniProt P41143)", "sequence (P41143 whole entry)": "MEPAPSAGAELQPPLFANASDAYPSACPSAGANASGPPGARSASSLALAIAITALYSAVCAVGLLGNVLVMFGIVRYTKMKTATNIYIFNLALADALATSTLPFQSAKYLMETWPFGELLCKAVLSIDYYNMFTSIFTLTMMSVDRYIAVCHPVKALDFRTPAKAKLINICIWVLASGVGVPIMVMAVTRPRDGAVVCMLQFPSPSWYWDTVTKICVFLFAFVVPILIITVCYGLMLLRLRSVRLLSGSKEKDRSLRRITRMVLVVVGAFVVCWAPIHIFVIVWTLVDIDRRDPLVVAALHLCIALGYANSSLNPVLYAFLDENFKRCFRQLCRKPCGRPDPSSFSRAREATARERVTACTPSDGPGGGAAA", "experiment": "cell-based", "settings": "dOR cAMP Agonist Assay EC50, CHO Tag-lite human dOR stable cell line; forskolin"}, "human mOR": {"biological_target": "human mOR (Homo sapiens (Human), UniProt P35372)", "sequence (P35372 whole entry)": "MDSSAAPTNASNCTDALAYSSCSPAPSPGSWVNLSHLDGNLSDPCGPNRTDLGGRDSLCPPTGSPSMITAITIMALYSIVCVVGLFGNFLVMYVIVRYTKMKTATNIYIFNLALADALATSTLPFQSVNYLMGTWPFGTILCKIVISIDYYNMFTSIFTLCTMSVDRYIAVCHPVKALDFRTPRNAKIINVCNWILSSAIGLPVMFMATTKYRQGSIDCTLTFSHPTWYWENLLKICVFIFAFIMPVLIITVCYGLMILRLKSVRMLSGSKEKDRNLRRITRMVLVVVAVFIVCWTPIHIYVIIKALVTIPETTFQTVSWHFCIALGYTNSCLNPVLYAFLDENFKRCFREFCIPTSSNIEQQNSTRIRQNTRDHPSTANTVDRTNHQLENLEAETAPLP", "experiment": "cell-based"}, "kOR (OPRK1)": {"biological_target": "kOR (OPRK1) (Homo sapiens (Human), UniProt P41145)", "sequence (P41145 whole entry)": "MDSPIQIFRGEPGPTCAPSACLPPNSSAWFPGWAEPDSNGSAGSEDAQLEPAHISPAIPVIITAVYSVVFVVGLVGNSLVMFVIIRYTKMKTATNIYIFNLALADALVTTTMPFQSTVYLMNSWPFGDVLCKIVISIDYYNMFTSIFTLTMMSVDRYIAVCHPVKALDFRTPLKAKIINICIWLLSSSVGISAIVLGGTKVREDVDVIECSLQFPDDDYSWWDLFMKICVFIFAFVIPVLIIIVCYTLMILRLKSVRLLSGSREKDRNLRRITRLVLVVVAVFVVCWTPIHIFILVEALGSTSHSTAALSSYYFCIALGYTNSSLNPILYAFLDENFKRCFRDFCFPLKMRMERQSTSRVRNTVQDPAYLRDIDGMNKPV", "experiment": "KOR β-Arrestin antagonist assay (Tango OPRK1-bla U2OS cells)", "type": "cell-based", "description": "KOR β-Arrestin Agonist and Antagonist assays were preformed using the Tango™ OPRK1-bla U2OS cells from Invitrogen and purchased from ThermoFisher, catalog number K1576."}, "[1]": {"settings": "CHO Tag-lite human mOR stable cell line, forskolin 4 μM and DAMGO at EC90, read-out: mOR cAMP Antagonist Assay IC50"}}, "note": "Like-named read-outs stand apart in the source and are kept apart here."}
{"compound": "CN(C)[C@H](CNC(=O)C[C@H](c1ccc(Cl)c(Cl)c1)C1(C(F)(F)F)CC1)Cc1ccc(C(N)=O)cc1", "note": "[Compound 80, 4-((S)-3-((R)-3-(3,4-dichlorophenyl)-3-(1-(trifluoromethyl)cyclopropyl)propanamido)-2-(dimethylamino)propyl)benzamide]", "values": [{"measurement": "EC50", "setting": "human dOR", "result": "< 0.3", "unit": "µM"}, {"measurement": "IC50", "setting": "human mOR", "result": "< 0.3", "unit": "µM"}, {"measurement": "IC50", "setting": "kOR (OPRK1)", "result": "< 0.3", "unit": "µM"}]}
{"compound": "CN(C)[C@H](CNC(=O)C[C@@H](c1ccccc1)C1(C(F)(F)F)CC1)Cc1ccc(C(N)=O)cc1", "note": "[Compound 88, 4-[(2S)-2-(dimethylamino)-3-[(3S)-3-phenyl-3-[1-(trifluoromethyl)cyclopropyl]propanamido]propyl]benzamide]", "values": [{"measurement": "EC50", "setting": "human dOR", "result": "< 0.3", "unit": "µM"}, {"measurement": "IC50", "setting": "human mOR", "result": "< 0.3", "unit": "µM"}, {"measurement": "IC50", "setting": "kOR (OPRK1)", "result": "< 0.3", "unit": "µM"}]}
{"compound": "CN(C)[C@H](CNC(=O)C[C@H](c1ccccc1)C1(C(F)(F)F)CC1)Cc1ccc(C(N)=O)cc1", "note": "[Compound 89, 4-[(2S)-2-(dimethylamino)-3-[(3R)-3-phenyl-3-[1-(trifluoromethyl)cyclopropyl]propanamido]propyl]benzamide]", "values": [{"measurement": "EC50", "setting": "human dOR", "result": "< 0.3", "unit": "µM"}, {"measurement": "IC50", "setting": "human mOR", "result": "< 0.3", "unit": "µM"}, {"measurement": "IC50", "setting": "kOR (OPRK1)", "result": "< 0.3", "unit": "µM"}]}
{"compound": "CN(C)[C@H](CNC(=O)C[C@H](CC1CCC1)c1ccccc1)Cc1ccc(C(N)=O)cc1", "note": "[Compound 90, 4-[(2S)-3-[(3S)-4-cyclobutyl-3-phenylbutanamido]-2-(dimethylamino)propyl]benzamide]", "values": [{"measurement": "EC50", "setting": "human dOR", "result": "< 0.3", "unit": "µM"}, {"measurement": "IC50", "setting": "human mOR", "result": "< 0.3", "unit": "µM"}, {"measurement": "IC50", "setting": "kOR (OPRK1)", "result": "< 0.3", "unit": "µM"}]}
{"compound": "CC(C)C[C@@H](CC(=O)NC[C@H](Cc1ccc(C(N)=O)cc1)N(C)C)c1ccccc1", "note": "[Compound 91, 4-[(2S)-2-(dimethylamino)-3-[(3S)-5-methyl-3-phenylhexanamido]propyl]benzamide]", "values": [{"measurement": "EC50", "setting": "human dOR", "result": "< 0.3", "unit": "µM"}, {"measurement": "IC50", "setting": "human mOR", "result": "< 0.3", "unit": "µM"}, {"measurement": "IC50", "setting": "kOR (OPRK1)", "result": "< 0.3", "unit": "µM"}]}
{"compound": "CC(C)C[C@H](CC(=O)NC[C@H](Cc1ccc(C(N)=O)cc1)N(C)C)c1ccccc1", "note": "[Compound 96, 4-((S)-2-(dimethylamino)-3-((R)-5-methyl-3-phenylhexanamido)propyl)benzamide]", "values": [{"measurement": "EC50", "setting": "human dOR", "result": "< 0.3", "unit": "µM"}, {"measurement": "IC50", "setting": "human mOR", "result": "< 0.3", "unit": "µM"}, {"measurement": "IC50", "setting": "kOR (OPRK1)", "result": "< 0.3", "unit": "µM"}]}
{"compound": "CN(C)[C@H](CNC(=O)C[C@@H](c1ccccc1)C1CC1)Cc1ccc(C(N)=O)cc1", "note": "[Compound 97, 4-((S)-3-((R)-3-cyclopropyl-3-phenylpropanamido)-2-(dimethylamino)propyl)benzamide]", "values": [{"measurement": "EC50", "setting": "human dOR", "result": "< 0.3", "unit": "µM"}, {"measurement": "IC50", "setting": "human mOR", "result": "< 0.3", "unit": "µM"}, {"measurement": "IC50", "setting": "kOR (OPRK1)", "result": "< 0.3", "unit": "µM"}]}
{"compound": "CNC(=O)c1ccc(C[C@@H](CNC(=O)C[C@H](c2cc(F)cc(F)c2)C2(C(F)(F)F)CC2)N(C)C)c(C)c1", "note": "[Compound 136, 4-((S)-3-((R)-3-(3,5-difluorophenyl)-3-(1-(trifluoromethyl)cyclopropyl)propanamido)-2-(dimethylamino)propyl)-N,3-dimethylbenzamide]", "values": [{"measurement": "EC50", "setting": "human dOR", "result": "0.3 to 3", "unit": "µM"}, {"measurement": "IC50", "setting": "human mOR", "result": "< 0.3", "unit": "µM"}, {"measurement": "IC50", "setting": "kOR (OPRK1)", "result": "< 0.3", "unit": "µM"}]}
{"compound": "CNC(=O)c1ccc(C[C@@H](CNC(=O)C[C@H](c2ccc(Cl)cc2)C2(C(F)(F)F)CC2)N(C)C)c(C)c1", "note": "[Compound 142, 4-((S)-3-((R)-3-(4-chlorophenyl)-3-(1-(trifluoromethyl)cyclopropyl)propanamido)-2-(dimethylamino)propyl)-N,3-dimethylbenzamide]", "values": [{"measurement": "EC50", "setting": "human dOR", "result": "> 3", "unit": "µM"}, {"measurement": "IC50", "setting": "human mOR", "result": "< 0.3", "unit": "µM"}, {"measurement": "IC50", "setting": "kOR (OPRK1)", "result": "< 0.3", "unit": "µM"}]}
{"compound": "CNC(=O)c1ccc(C[C@@H](CNC(=O)C[C@H](c2ccccc2)C2(C(F)(F)F)CC2)N(C)C)c(C)c1", "note": "[Compound 143, 4-((S)-2-(dimethylamino)-3-((R)-3-phenyl-3-(1-(trifluoromethyl)cyclopropyl)propanamido)propyl)-N,3-dimethylbenzamide]", "values": [{"measurement": "EC50", "setting": "human dOR", "result": "> 3", "unit": "µM"}, {"measurement": "IC50", "setting": "human mOR", "result": "< 0.3", "unit": "µM"}, {"measurement": "IC50", "setting": "kOR (OPRK1)", "result": "< 0.3", "unit": "µM"}]}
{"compound": "CN(C)[C@H](CNC(=O)C[C@@H](c1ccccc1)C1CC1)Cc1ccc2[nH]ncc2c1", "note": "[Compound 226, (3R)-3-cyclopropyl-N-[(2S)-2-(dimethylamino)-3-(1H-indazol-5-yl)propyl]-3-phenylpropanamide]", "values": [{"measurement": "EC50", "setting": "human dOR", "result": "0.3 to 3", "unit": "µM"}, {"measurement": "IC50", "setting": "human mOR; [1]", "result": "< 0.3", "unit": "µM"}, {"measurement": "IC50", "setting": "kOR (OPRK1)", "result": "< 0.3", "unit": "µM"}]}
{"compound": "CN(C)[C@H](CNC(=O)C[C@H](c1ccccc1)C1CC1)Cc1ccc2[nH]ncc2c1", "note": "[Compound 227, (3S)-3-cyclopropyl-N-[(2S)-2-(dimethylamino)-3-(1H-indazol-5-yl)propyl]-3-phenylpropanamide]", "values": [{"measurement": "EC50", "setting": "human dOR", "result": "0.3 to 3", "unit": "µM"}, {"measurement": "IC50", "setting": "human mOR; [1]", "result": "< 0.3", "unit": "µM"}, {"measurement": "IC50", "setting": "kOR (OPRK1)", "result": "0.3 to 3", "unit": "µM"}]}
{"compound": "Cc1cc(O)cc(C)c1C[C@@H](CNC(=O)C[C@H](c1ccccc1)C1CC1)N(C)C", "note": "[Compound 251, (S)-3-cyclopropyl-N-((S)-2-(dimethylamino)-3-(4-hydroxy-2,6-dimethylphenyl)propyl)-3-phenylpropanamide]", "values": [{"measurement": "EC50", "setting": "human dOR", "result": "> 3", "unit": "µM"}, {"measurement": "IC50", "setting": "human mOR; [1]", "result": "< 0.3", "unit": "µM"}, {"measurement": "IC50", "setting": "kOR (OPRK1)", "result": "< 0.3", "unit": "µM"}]}
{"compound": "CN(C)[C@H](CNC(=O)C[C@@H](c1ccccc1)C1CC1)Cc1ccc(O)cc1", "note": "[Compound 318, (R)-3-cyclopropyl-N-((S)-2-(dimethylamino)-3-(4-hydroxyphenyl)propyl)-3-phenylpropanamide]", "values": [{"measurement": "EC50", "setting": "human dOR", "result": "< 0.3", "unit": "µM"}, {"measurement": "IC50", "setting": "human mOR", "result": "< 0.3", "unit": "µM"}, {"measurement": "IC50", "setting": "kOR (OPRK1)", "result": "< 0.3", "unit": "µM"}]}
{"compound": "CN(C)[C@H](CNC(=O)C[C@H](c1ccccc1)C1CC1)Cc1ccc(O)cc1", "note": "[Compound 319, (S)-3-cyclopropyl-N-((S)-2-(dimethylamino)-3-(4-hydroxyphenyl)propyl)-3-phenylpropanamide]", "values": [{"measurement": "EC50", "setting": "human dOR", "result": "< 0.3", "unit": "µM"}, {"measurement": "IC50", "setting": "human mOR; [1]", "result": "> 3", "unit": "µM"}, {"measurement": "IC50", "setting": "kOR (OPRK1)", "result": "< 0.3", "unit": "µM"}]}
